Data published in patent US5817679A, “7-Azabicyclo[2.2.1]-heptane and -heptene derivatives as cholinergic receptor ligands” (priority 1994, dated 1998).

Key:
[1] = Analgesic activity, Straub-Tail assay (Table 5); format: in vivo; conditions: for ED50: Straub-Tail assay
Source text: A wide variety of biological assays have been used to evaluate the ability of a compound to act as an analgesic. Any of these known assays can be used to evaluate the analgesic ability of the compounds disclosed herein. The Straub-tail reaction, which is characteristic of opiate alkaloids, has been used as an assay for opiate agonists and antagonists. The assay is described in detail in Br. J. of Pharmacol. 1969, 36, 225. Another accepted assay for analgesic activity is the hot plate analgesia assay, described in J. of Pharmacol. Exp. Therap. 1953, 107, 385. An assay for the evaluation of the ability of a compound to bind to an opiate receptor is described in Mol. Pharmacol. 1974, 10, 868.
Evaluation of Analgesic Activity
Table 5 provides the analgesic activity measured as ED50 (μg/Kg) for selected compounds disclosed herein, as determined using the Straub-Tail assay, as describe by J. Daly et al. J. Am. […] Chem. Soc. 1992, 114, 3475; T. Li, et al. Bioorganic and Medicinal Chemistry Letters 1993, 3, 2759.

[2] = molecular target: T1, acetylcholine nicotinic receptor (Rattus norvegicus, UniProt P09483+P12390); experiment: Nicotinic receptor binding, [3H]-NMCI radioligand, rat cortex (Table 6)
T1 construct: rat cortex as the tissue substrate; from tissue; host or cells: rat cortex
Description: Evaluation of Nicotinic Receptor Binding Activity
7-Aza-bicyclo[2.2.1]-heptanes and -heptenes were evaluated for their ability to bind to the acetylcholine nicotinic receptor using a standard binding assay, e.g. X. Zhang and A. Nordberg, Arch. Pharmacol., 348, 28 (1993); R. E. Middleton and J. B. Cohen, Biochemistry, 30, 6987 (1991), with nicotine sulfate as the reference compound, rat cortex as the tissue substrate, and a [^3 H]-NMCI radioligand.

[3] = Tail-flick assay in mice and rats (antinociception); format: in vivo; conditions: for Tail-Flick Assay ED50 % Effect After 5 min. / Tail-Flick Assay ED50 % Effect After 60 min.: (mg/kg)
Description: Tail-Flick Assay in Mice and Rats
Female CD-1 mice (20-25 g, Charles River Labs) and male CD rats (300-400 g, Charles River Labs) were housed in groups of two and five, respectively. Animals were given food and water ad libitum. Most studies were performed using groups of 5 animals per treatment unless otherwise noted.
Antinociceptive effects (i.e., analgesia) of test compounds in mice and rats were measured by the tail-flick test using a tail-flick analgesia meter (EMDIE Instrument Co.). A maximum latency of 10 sec was imposed if no response occurred within that time. Antinociceptive activity, measured as % MPE, was calculated as [(test-control)/(10-control)×100)].
Duration of compound and (-)-nicotine-induced antinociception was assessed in mice by measuring antinociception at 2, 5, 10, 20 min after compound (20 μg/kg, s.c.) or nicotine (5 mg/kg, s.c.).
Mice (7/group) or rats were pretreated i.v. (0.9% saline or antagonist, mecamylamine, hexamethonium, atropine, naloxone or yohimbine) 10 minutes before administration of compound or nicotine at different doses. A control response (1.5-4 sec) was determined for each animal before treatment and test latencies were assessed at 5 minutes after compound administration (5 ml/kg, s.c.) or 2 min after nicotine (5 ml/kg, s.c.).

[4] = Analgesic activity, Straub-Tail assay (Table 5); format: in vivo
a4b2 subtype receptor = conditions: in words; cited from earlier work
[5] = molecular target: T2, nicotinic cholinergic receptor (Rattus norvegicus, UniProt P09483+P12390); experiment: Competition with [3H](-)-cytisine for binding to rat cortex (brain) receptors (Tables 7, 8); conditions: Table 8, [3H](-)-cytisine, rat brain cortex membranes; read-out: Nicotine Receptor IC50
T2 construct: A membrane fraction from rat brain cortex; tissue Harlan Laboratories; host or cells: rat brain cortex membranes
Source text: Competition with Cytisine for Binding to Rat Cortex (Brain) Receptors
[^3 H](-)-Cytisine is a nicotinic cholinergic receptor ligand that binds with high affinity to the a4b2 subtype receptor, the major subtype in rodent brain accounting for >90% of (-)-nicotine binding sites (Flores, et al., 1992; Whiting, et al., 1992). This nicotinic receptor subtype is most sensitive to (-)-nicotine compared to other receptor subtypes (Connolly, et al., 1992). Compounds that compete with cytisine for the nicotinic cholineric receptor are considered nicotine receptor agonists.
A membrane fraction from rat brain cortex (Harlan Laboratories) was prepared using an adaptation of an established method (Pabreza, et al., 1991). Compound and [^3 H]-(-)-cytisine (New England Nuclear, 42 Ci/mmol) were mixed before addition of membrane (0.5 mg protein) and incubated in glass tubes for 75 minutes on ice; total assay volume was 0.24 ml. Parallel assays to determine nonspecific binding were incubated in the presence of 10 uM (-)-nicotine (Sigma). Bound radioactivity was isolated by vacuum filtration onto glass microfiber filters (Whatman, GF-B) using millipore tubs, followed by 3×4 ml buffer wash. Filters were prerinsed with 0.5% polyethyleneimine prior to sample filtration to reduce nonspecific binding. Bound radioactivity was quantitated by scintillation counting.

[6] = opiate antagonist naloxone; cited from earlier work
opiate receptors = conditions: in words; cited from earlier work
[7] = tested on: nicotinic cholinergic receptor; conditions: in words; cited from earlier work
[8] = Straub-Tail assay, read-out: ED50

Q: Which “effect in Straub-Tail assay” value ([1]; @ 1000 μg/Kg) does the source give for Clc1ccc([C@H]2C[C@@H]3CC[C@H]2N3CC2CC2)cn1 (relative stereo) here?
A: The value was 100%.

Q: With N=CN1C2CCC1C(c1cccnc1)C2 (stereo not shown) as the molecule, how does the Inhibition % ([2]; testing level 10^-7 M) read?
A: Its Inhibition % is 103.9%.

Q: What about the Inhibition % ([2]; testing level 10^-8 M) of the same molecule?
A: The Inhibition % was 71.3%.

Q: Which results are given for Cc1nnc(C2CC3CCC2N3C)o1 (stereo not shown) [drawing 60]?
A: Tail-Flick Assay ED50 % Effect After 5 min. [3]: -2.9%; Tail-Flick Assay ED50 % Effect After 60 min. [3]: -3.6%

Q: For C[N+]1(C)[C@H]2CC[C@@H]1[C@@H](c1ccc(Cl)nc1)C2 (relative stereo), which ED50 [4, 8] is on record?
A: The ED50 was 0.1 to 0.2 mg/kg.

Q: Which Inhibition % ([2]; testing level 10^-5 M) does the source give for c1cncc(C2CC3CCC2N3)c1 (stereo not shown) [drawing 55] here?
A: The Inhibition % was 104%.

Q: And the Inhibition % ([2]; testing level 10^-9 M)?
A: The Inhibition % was 103%.

Q: For c1cncc(C2CC3CCC2N3)c1 (stereo not shown) [drawing 40], which ED50 [4, 8] is on record?
A: The ED50 was 10 mg/kg.

Q: With Clc1ccc([C@H]2C[C@@H]3CC[C@H]2N3CCc2ccccc2)cn1 (relative stereo) as the molecule, how does the ED50 [4, 8] read?
A: The ED50 was less than 1 mg/kg.

Q: With Clc1ccc([C@H]2C[C@@H]3C=C[C@H]2N3)cn1 (relative stereo) as the molecule, how does the ED50 [4, 8] read?
A: Its ED50 is less than 1 mg/kg.

Q: Which Inhibition % ([2]; testing level 10^-5 M) does the source give for C[N+]1(C)C2CCC1C(c1ccc(Cl)nc1)C2 (stereo not shown) here?
A: The Inhibition % was 104%.

Q: What about the Inhibition % ([2]; testing level 10^-7 M) of the same molecule?
A: Its Inhibition % is 100%.

Q: With O=c1cccc2n1C[C@@H]1CNC[C@H]2C1 [[^3 H](-)-Cytisine] as the molecule, how does the “affinity for a4b2 subtype receptor” value (a4b2 subtype receptor) read?
A: Its value is “high affinity”.

Q: With Cc1cc(C2CC3CCC2N3C)on1 (stereo not shown) as the molecule, how does the IC50 [5] read?
A: Its IC50 is 24 nM.

Q: For CC(C)(C)Oc1ccc([C@H]2C[C@@H]3CC[C@H]2N3)cn1 (relative stereo), which ED50 [4, 8] is on record?
A: The ED50 was roughly 1 mg/kg.

Q: For Cc1cc(C2CC3CCC2N3)on1 (stereo not shown), which IC50 [5] is on record?
A: The IC50 was 630 nM.

Q: With Clc1ccc([C@@H]2C[C@H]3CC[C@@H]2N3)cn1 [d-epibatidine] as the molecule, how does the ED50 [1] read?
A: Its ED50 is greater than 0.1 mg/kg.

Q: With c1ccc2nc(C3CC4CCC3N4)ccc2c1 (stereo not shown) as the molecule, how does the IC50 [5] read?
A: The IC50 was 7 nM.

Q: For Fc1ccc([C@H]2C[C@@H]3CC[C@H]2N3)cn1 (relative stereo), which ED50 [4, 8] is on record?
A: Its ED50 is roughly 0.05 mg/kg.

Q: For ClCCN1[C@H]2CC[C@@H]1[C@@H](c1ccc(Cl)nc1)C2 (relative stereo), which ED50 [4] is on record?
A: The ED50 was roughly 0.1 mg/kg.

Q: Which ED50 [1] does the source give for Clc1ccc([C@H]2C[C@@H]3CC[C@H]2N3)cn1 (relative stereo) [drawing 50] here?
A: The ED50 was 0.01 mg/kg.

Q: Which “Tail-Flick Assay ED50 % Effect After 5 min.” value [3] does the source give for Cc1nnc(C2CC3CCC2N3C)o1 (stereo not shown) [drawing 61] here?
A: The value was 6.7%.

Q: What about the “Tail-Flick Assay ED50 % Effect After 60 min.” value [3] of the same molecule?
A: Its value is 24.6%.

Q: With COc1ccc([C@H]2C[C@@H]3CC[C@H]2N3)cn1 (relative stereo) as the molecule, how does the ED50 [4, 8] read?
A: The ED50 was 0.75 mg/kg.

Q: Which “effect in Straub-Tail assay” value ([1]; @ 100 (μg/Kg per column head)) does the source give for N=CN1[C@H]2CC[C@@H]1[C@@H](c1ccc(Cl)nc1)C2 (relative stereo) here?
A: The value was 99%.

Q: Which ED50 [4, 8] does the source give for c1cncc([C@H]2C[C@@H]3CC[C@H]2N3)c1 (relative stereo) here?
A: The ED50 was 0.25 mg/kg.

Q: With CN1C2CCC1C(c1ccc3ccccc3n1)C2 (stereo not shown) as the molecule, how does the IC50 [5] read?
A: The IC50 was 77 nM.

Q: With CN1[C@H]2CC[C@@H]1[C@@H](c1ccc(Cl)nc1)C2 (relative stereo) as the molecule, how does the ED50 [4, 8] read?
A: The ED50 was less than 0.01 mg/kg.

Q: Which “effect of naloxone on Straub-tail response” value [6] does the source give for Clc1ccc([C@H]2C[C@@H]3CC[C@H]2N3)cn1 (relative stereo) [epibatidine, exo-2-(2-chloro-5-pyridyl)-7-azabicyclo[2.2.1]heptane] here?
A: The value was “not reversed by the opiate antagonist naloxone”.

Q: And the “affinity for opiate receptors” value (opiate receptors)?
A: Its value is “negligible affinity”.

Q: What about the “nicotinic cholinergic receptor activity” value [7] of the same molecule?
A: Its value is “nicotinic cholinergic receptor agonist”.

Q: For Cc1noc(C2CC3CCC2N3C)n1 (stereo not shown), which ED50 ([3]; Mus musculus, sc, Table 8) is on record?
A: Its ED50 is 0.23 mg/kg.

Q: For N=CN1C2CCC1C(c1ccc(Cl)nc1)C2 (stereo not shown), which Inhibition % ([2]; testing level 10^-7 M) is on record?
A: The Inhibition % was 104%.
